The values that follow come from PubChem BioAssay (NCI).

Some test systems named below: SN12C renal; SF-295 CNS; MDA-MB-231 breast; OVCAR-4 ovarian; CCRF-CEM leukemia; SK-OV-3 ovarian; NCI-H226 lung; HS 578T breast; HL-60(TB) leukemia; COLO 205 colon.
Test in all cases: inhibition of tumour cell growth, NCI panel, 48 h

Values joined by “and” are separate entries in the source; they are usually repeats but may differ in a detail not shown here. Equal values may be shown once.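 Test compounds were applied to cells in 96-well plates for 48 hours at 5 doses. GI50 is the concentration that inhibits growth by half. TGI marks complete inhibition of growth.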

With `O=C1/C(=C\c2ccc(F)cc2)CN(C(=O)c2ccc([N+](=O)[O-])cc2)C/C1=C\c1ccc(F)cc1`, the GI50 in the assay with SN12C renal is 2.19 µM; in the assay with SF-295 CNS, 2.99 µM; in the assay with MDA-MB-231 breast it was 2.38 µM; in the assay on OVCAR-4 ovarian, 3.61 µM; in the assay with CCRF-CEM leukemia it was 1.64 µM; in the assay on SK-OV-3 ovarian it was 3.7 µM. The GI50 in the assay on HS 578T breast was 2.29 µM; in the assay on HL-60(TB) leukemia it was 5.07 µM; in the assay on COLO 205 colon, 3.17 µM. The TGI in the assay with SN12C renal was 6.55 µM; in the assay with SF-295 CNS, 16.4 µM; in the assay on MDA-MB-231 breast, 7.92 µM; in the assay with OVCAR-4 ovarian, greater than 100 µM; with CCRF-CEM leukemia it was greater than 42.6 µM; in the assay on SK-OV-3 ovarian, 26.8 µM. Also, the TGI in the assay on NCI-H226 lung was greater than 21.4 µM; in the assay with HS 578T breast it was 8.79 µM; in the assay with HL-60(TB) leukemia it was greater than 50.2 µM; in the assay on COLO 205 colon, 12.7 µM.
Turning to `CCN(CC)CC.CCOc1ccc(NC(=O)N=C=[N-])cc1.[CH-]1CCCCC1.[CH-]1CCCCC1.[CH-]1CCCCC1.[Cl-].[Sn+4]`, the GI50 with SN12C renal is 0.0233 µM; in the assay on SF-295 CNS, 0.0521 µM; in the assay with MDA-MB-231 breast, 0.103 µM; with OVCAR-4 ovarian, 0.0446 µM; in the assay on CCRF-CEM leukemia, less than 0.0162 µM; in the assay on SK-OV-3 ovarian, 0.0466 µM. Besides, the GI50 with NCI-H226 lung was 0.0737 µM; with HS 578T breast it was 0.0565 µM; in the assay on HL-60(TB) leukemia it was 0.0184 µM; with COLO 205 colon, 0.0184 µM. Further, the TGI in the assay with SN12C renal amounted to 0.0634 µM; in the assay with SF-295 CNS it was 0.149 µM; in the assay with MDA-MB-231 breast it was 0.25 µM; in the assay on OVCAR-4 ovarian it was 0.139 µM; in the assay with CCRF-CEM leukemia it was 0.515 µM; in the assay on SK-OV-3 ovarian it was 0.118 µM. Also, the TGI in the assay with NCI-H226 lung turned out to be 0.183 µM; in the assay on HS 578T breast, 0.47 µM; with HL-60(TB) leukemia it was 0.0584 µM; in the assay with COLO 205 colon, 0.0422 µM.
Take `C=CC(=O)N1C/C(=C\c2ccccc2)C(=O)/C(=C/c2ccccc2)C1`: the TGI with SN12C renal came to 3.44 µM; in the assay on SF-295 CNS, 5.07 µM; with MDA-MB-231 breast, 4.55 µM; with OVCAR-4 ovarian, 6.6 µM; in the assay with CCRF-CEM leukemia it was 3.55 µM; in the assay on SK-OV-3 ovarian, 7.58 µM. Besides, the TGI turned out to be 10.6 µM in the assay on NCI-H226 lung, 14.8 µM in the assay with HS 578T breast, 7.4 µM in the assay with HL-60(TB) leukemia and 3.87 µM in the assay on COLO 205 colon. In addition, the GI50 was 0.927 µM in the assay with CCRF-CEM leukemia, 2.22 µM with HS 578T breast and 0.805 µM with HL-60(TB) leukemia.
In the case of `O=C(c1ccc(OCCN2CCCCC2)cc1)c1c(-c2ccc(O)cc2)sc2cc(O)ccc12`, the GI50 was 13.5 µM and 14.5 µM in the assay with SN12C renal; 2.99 µM and 7.88 µM with SF-295 CNS; 10.4 µM and 9.02 µM in the assay on MDA-MB-231 breast; 7.8 µM and 12.1 µM with OVCAR-4 ovarian; 5.55 µM and 1.85 µM with CCRF-CEM leukemia; 11.3 µM and 14.2 µM with SK-OV-3 ovarian. The GI50 was 15 µM and 17 µM with NCI-H226 lung; 2.99 µM and 9.71 µM in the assay on HS 578T breast; 2.02 µM in the assay on HL-60(TB) leukemia; 12.3 µM and 9.73 µM in the assay on COLO 205 colon. The TGI with SN12C renal is 29.7 µM and 29.8 µM; with SF-295 CNS it was 11 µM and 28.5 µM; with MDA-MB-231 breast it was 23.2 µM and 23.6 µM; with OVCAR-4 ovarian it was 20.5 µM and 36.8 µM; in the assay with CCRF-CEM leukemia it was 43.9 µM and > 29.8 µM; in the assay on SK-OV-3 ovarian, 23.3 µM and 30.4 µM. The TGI in the assay on NCI-H226 lung was 29.6 µM and 34.6 µM; in the assay on HS 578T breast, 22.8 µM and 47.8 µM; in the assay with HL-60(TB) leukemia it was 12.7 µM; in the assay with COLO 205 colon, 24.7 µM and 40.6 µM.
For `COc1ccc(-c2nsc3c2NC(=O)CC3c2ccc(F)cc2)cc1` (configuration not stated), the GI50 in the assay on SN12C renal is greater than 23.4 µM; in the assay on SF-295 CNS, 4.08 µM; in the assay on MDA-MB-231 breast it was 6.68 µM; with OVCAR-4 ovarian, 12.7 µM; with CCRF-CEM leukemia, 5.27 µM; with SK-OV-3 ovarian, 4.59 µM. Also, the GI50 with NCI-H226 lung was 8.67 µM; in the assay on HS 578T breast, 4.48 µM; with HL-60(TB) leukemia, 0.598 µM; in the assay with COLO 205 colon, 2.49 µM. Moreover, the TGI in the assay with SN12C renal is greater than 100 µM; in the assay on SF-295 CNS, greater than 29.1 µM; in the assay on MDA-MB-231 breast, greater than 100 µM; with OVCAR-4 ovarian, greater than 100 µM; in the assay with CCRF-CEM leukemia it was greater than 100 µM; in the assay with SK-OV-3 ovarian, greater than 100 µM. The TGI was greater than 100 µM in the assay on NCI-H226 lung, greater than 73.8 µM in the assay with HS 578T breast, greater than 21.1 µM in the assay with HL-60(TB) leukemia and 8.39 µM with COLO 205 colon.
Consider `Cc1ccc(S(=O)(=O)Oc2ccc([N+](=O)[O-])cc2[N+](=O)[O-])cc1`, for which the GI50 in the assay with SN12C renal is 3.78 µM; in the assay on SF-295 CNS, 10.4 µM; in the assay on MDA-MB-231 breast, 6.7 µM; in the assay on OVCAR-4 ovarian, 7.51 µM; with CCRF-CEM leukemia, 0.6 µM; in the assay with SK-OV-3 ovarian it was 9.4 µM. The GI50 in the assay on NCI-H226 lung is 10.6 µM; in the assay on HS 578T breast, 21.5 µM; with HL-60(TB) leukemia, 11.4 µM; in the assay on COLO 205 colon it was 4.51 µM. In addition, the TGI in the assay with SN12C renal came to 17.3 µM; with SF-295 CNS, 25.2 µM; with MDA-MB-231 breast, 22.1 µM; with OVCAR-4 ovarian it was 20.4 µM; in the assay on CCRF-CEM leukemia, 15.7 µM; in the assay with SK-OV-3 ovarian it was 91.3 µM. In addition, the TGI in the assay on NCI-H226 lung is 43.6 µM; with HS 578T breast it was greater than 100 µM; in the assay with HL-60(TB) leukemia it was 38.3 µM; in the assay with COLO 205 colon, 18.6 µM.
For the compound `O=C(N/N=C/c1ccccc1O)C(O)(c1ccccc1)c1ccccc1`, the GI50 in the assay on SN12C renal was greater than 100 µM; in the assay with SF-295 CNS, 4.5 µM; with MDA-MB-231 breast, 15 µM; with OVCAR-4 ovarian it was 3.43 µM; with CCRF-CEM leukemia, 2.26 µM; with SK-OV-3 ovarian, greater than 100 µM. In addition, the GI50 in the assay on NCI-H226 lung was greater than 100 µM; with HS 578T breast it was greater than 100 µM; in the assay on HL-60(TB) leukemia it was 2.88 µM; in the assay with COLO 205 colon, 3.43 µM. The TGI in the assay with SN12C renal, with SF-295 CNS, in the assay with MDA-MB-231 breast, with OVCAR-4 ovarian, with CCRF-CEM leukemia and with SK-OV-3 ovarian was greater than 100 µM each time. Also, the TGI in the assay on NCI-H226 lung, in the assay with HS 578T breast, in the assay on HL-60(TB) leukemia and in the assay on COLO 205 colon was greater than 100 µM in each case.
As for `COC(=O)[C@H]1[C@@H](O)[C@@]2(O)c3c(OC)cc(O[C@@H]4O[C@@H]([C@H](O)CO)CO[C@H]4OC)cc3O[C@@]2(c2ccc(OC)cc2)[C@@H]1c1ccccc1`, the GI50 is 0.00359 µM in the assay on SN12C renal; 0.0127 µM with SF-295 CNS; 0.00386 µM with MDA-MB-231 breast; 0.00506 µM in the assay with OVCAR-4 ovarian; 0.00545 µM in the assay with CCRF-CEM leukemia; 0.00296 µM with SK-OV-3 ovarian. For the same compound, the GI50 with NCI-H226 lung is 0.00813 µM; in the assay on HS 578T breast it was 0.00596 µM; in the assay with HL-60(TB) leukemia, 0.00327 µM; in the assay on COLO 205 colon, 0.00309 µM. The TGI in the assay on SN12C renal is 0.0501 µM; with SF-295 CNS, 0.0471 µM; in the assay with MDA-MB-231 breast, 0.0237 µM; with OVCAR-4 ovarian it was 0.0484 µM; in the assay with CCRF-CEM leukemia, 0.125 µM; in the assay with SK-OV-3 ovarian, 0.0325 µM. For the same compound, the TGI in the assay on NCI-H226 lung came to 0.078 µM; with HS 578T breast it was 0.0806 µM; in the assay on HL-60(TB) leukemia it was 0.0185 µM; in the assay with COLO 205 colon, 0.00989 µM.
As to `CCCOc1ccc(-c2nc(-c3ccc(N=Cc4ccc(N(CCOS(C)(=O)=O)CCOS(C)(=O)=O)cc4C)cc3)cs2)cc1`, the TGI with SN12C renal was greater than 92.6 µM; with SF-295 CNS it was 45.5 µM; in the assay on MDA-MB-231 breast it was 86 µM; with OVCAR-4 ovarian it was 81.9 µM; in the assay with CCRF-CEM leukemia it was greater than 100 µM; with SK-OV-3 ovarian, 43.2 µM. In addition, the TGI in the assay on NCI-H226 lung was 84.5 µM; in the assay with HS 578T breast it was greater than 90.9 µM; in the assay with HL-60(TB) leukemia, 54 µM; with COLO 205 colon it was 14.9 µM.
